Assays:
Rhizoctonia solani = assay: Antifungal activity against Rhizoctonia solani infected compound-pre-treated rice seedlings at 300 ppm incubated for 2 days prior to infection measured after 4 days relative to diclomezine; type: functional
Podosphaera fuliginea = assay: Antifungal activity against Podosphaera fuliginea infected compound-pre-treated cucumber seedlings at 300 ppm incubated for 2 days prior to infection measured after 4 days relative to buthiobate; type: functional

Compound | Activity_index (Rhizoctonia solani) | Activity_index (Podosphaera fuliginea)
C[Si](C)(C)CC(C#N)(Cn1cncn1)c1ccc(Cl)cc1Cl (centres undefined) | 2 | 2
C[Si](C)(C)CC(C#N)(Cn1cncn1)c1ccc(Cl)c(Cl)c1 (centres undefined) | 0 | 2
C[Si](C)(CC(C#N)(Cn1cncn1)c1ccc(Cl)cc1)c1ccccc1 (centres undefined) | 0 | 2
C[Si](C)(CC(C#N)(Cn1cncn1)c1ccccc1)c1ccccc1 (centres undefined) | 0 | 2
C[Si](C)(CC(C#N)(Cn1cncn1)c1cccc(Oc2ccccc2)c1)c1ccccc1 (centres undefined) | 0 | 0
C[Si](C)(C)CC(C#N)(Cn1cncn1)c1ccc(F)cc1 (centres undefined) | 2 | 0
C[Si](C)(C)CC(C#N)(Cn1cncn1)c1ccc(Cl)cc1 (centres undefined) | 2 | 0
C[Si](C)(C)CC(C#N)(Cn1cncn1)c1ccccc1 (centres undefined) | 2 | 2
COc1ccc(C(C#N)(Cn2cncn2)C[Si](C)(C)C)cc1 (centres undefined) | 2 | 2
Cc1ccc(C(C#N)(Cn2cncn2)C[Si](C)(C)C)cc1 (centres undefined) | 0 | 2
C[Si](C)(C)CC(C#N)(Cn1cncn1)c1ccccc1Cl (centres undefined) | 2 | 0
C[Si](C)(C)CC(C#N)(Cn1cncn1)c1cccc(Cl)c1 (centres undefined) | 0 | 2
